Literature values in patent US11535670B2, “Combination therapies of HDAC inhibitors and PD-L1 inhibitors” (HUYABIO International, LLC, priority 2016, dated 2022).

Tests used:
HDAC 1 = HDAC 1 (Homo sapiens, UniProt Q13547); details: cited from earlier work
HDAC 10 = target: T1, HDAC 10 (Homo sapiens, UniProt Q969S8); details: cited from earlier work
T1 sequence (Q969S8 1-669): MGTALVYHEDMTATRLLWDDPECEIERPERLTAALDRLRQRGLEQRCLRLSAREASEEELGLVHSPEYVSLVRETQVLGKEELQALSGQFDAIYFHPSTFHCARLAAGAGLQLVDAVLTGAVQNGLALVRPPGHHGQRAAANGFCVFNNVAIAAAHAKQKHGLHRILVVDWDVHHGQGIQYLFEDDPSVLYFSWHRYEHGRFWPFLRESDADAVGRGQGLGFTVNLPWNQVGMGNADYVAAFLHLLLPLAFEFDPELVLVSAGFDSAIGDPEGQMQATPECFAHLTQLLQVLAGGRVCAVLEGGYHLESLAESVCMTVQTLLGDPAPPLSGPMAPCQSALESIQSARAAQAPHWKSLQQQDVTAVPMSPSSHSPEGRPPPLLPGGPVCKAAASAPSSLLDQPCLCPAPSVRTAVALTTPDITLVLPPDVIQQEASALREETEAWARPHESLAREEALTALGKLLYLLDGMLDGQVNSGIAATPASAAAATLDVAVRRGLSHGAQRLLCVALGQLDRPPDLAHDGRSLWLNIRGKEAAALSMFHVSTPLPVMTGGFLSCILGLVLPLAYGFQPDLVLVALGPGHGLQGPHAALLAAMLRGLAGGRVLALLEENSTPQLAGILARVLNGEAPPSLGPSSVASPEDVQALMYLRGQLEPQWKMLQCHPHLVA

HDAC 8 = target: T2, HDAC 8 (Homo sapiens, UniProt Q9BY41); details: cited from earlier work
T2 sequence (Q9BY41 1-377): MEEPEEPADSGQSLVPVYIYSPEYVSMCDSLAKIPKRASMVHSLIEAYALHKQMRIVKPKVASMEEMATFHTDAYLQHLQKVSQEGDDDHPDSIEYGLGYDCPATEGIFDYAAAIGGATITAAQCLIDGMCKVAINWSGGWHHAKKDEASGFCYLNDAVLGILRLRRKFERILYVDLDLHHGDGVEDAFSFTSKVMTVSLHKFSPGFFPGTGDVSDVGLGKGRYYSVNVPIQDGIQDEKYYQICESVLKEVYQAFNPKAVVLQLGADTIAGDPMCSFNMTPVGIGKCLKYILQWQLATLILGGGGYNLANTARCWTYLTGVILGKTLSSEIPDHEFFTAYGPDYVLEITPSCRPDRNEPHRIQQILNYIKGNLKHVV

HDAC 11 = target: T3, HDAC 11 (Homo sapiens, UniProt Q96DB2); details: cited from earlier work
T3 sequence (Q96DB2 1-347): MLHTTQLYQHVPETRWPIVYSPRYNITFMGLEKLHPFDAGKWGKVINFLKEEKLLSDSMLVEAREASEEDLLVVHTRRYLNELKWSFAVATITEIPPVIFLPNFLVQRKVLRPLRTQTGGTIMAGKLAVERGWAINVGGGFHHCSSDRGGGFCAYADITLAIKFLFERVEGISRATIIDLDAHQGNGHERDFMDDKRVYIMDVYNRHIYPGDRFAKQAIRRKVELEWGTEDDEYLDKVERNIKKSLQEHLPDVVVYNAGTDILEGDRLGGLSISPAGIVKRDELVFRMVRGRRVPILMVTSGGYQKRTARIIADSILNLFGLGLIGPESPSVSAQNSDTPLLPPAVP

[1] = oral administration; cited from earlier work

Sequence of HDAC 1 (Q13547 whole entry): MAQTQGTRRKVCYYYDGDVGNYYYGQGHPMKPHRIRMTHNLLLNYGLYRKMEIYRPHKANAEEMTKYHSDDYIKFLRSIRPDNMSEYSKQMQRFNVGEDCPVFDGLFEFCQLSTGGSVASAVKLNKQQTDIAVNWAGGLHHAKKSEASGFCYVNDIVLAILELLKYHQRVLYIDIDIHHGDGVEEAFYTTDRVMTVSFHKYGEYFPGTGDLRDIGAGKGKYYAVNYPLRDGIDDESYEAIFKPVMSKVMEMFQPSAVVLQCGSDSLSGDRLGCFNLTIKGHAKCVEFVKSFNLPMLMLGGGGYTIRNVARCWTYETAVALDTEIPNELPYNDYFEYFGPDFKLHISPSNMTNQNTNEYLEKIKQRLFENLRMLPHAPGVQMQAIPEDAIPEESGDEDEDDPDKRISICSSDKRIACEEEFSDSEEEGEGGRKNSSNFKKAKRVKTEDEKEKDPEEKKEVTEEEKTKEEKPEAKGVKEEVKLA

**Q.** With `Nc1cc(F)ccc1NC(=O)c1ccc(CNC(=O)/C=C/c2cccnc2)cc1` [HBI-8000, N-(2-amino-4-fluorophenyl)-4-[[[(2E)-1-oxo-3-(3-pyridinyl)-2-propen-1-yl]amino]methyl]benzamide] as the compound, how does the “inhibition of HDAC 1” value (HDAC 1) read?
**A.** low nanomolar concentrations

**Q.** What about the “activity at HDAC 1 compared with Entinostat” value (HDAC 1; versus Entinostat) of the same compound?
**A.** more active than Entinostat

**Q.** And the “inhibition of HDAC 10” value (HDAC 10)?
**A.** low nanomolar concentrations

**Q.** What about the “activity at HDAC 10 compared with Entinostat” value (HDAC 10; versus Entinostat) of the same compound?
**A.** more active than Entinostat

**Q.** And the “activity at HDAC 8” value (HDAC 8)?
**A.** has activity

**Q.** And the “activity at HDAC 8 compared with Entinostat” value (HDAC 8; versus Entinostat)?
**A.** more active than Entinostat

**Q.** What about the “activity at HDAC 11” value (HDAC 11) of the same compound?
**A.** has activity

**Q.** What about the “activity at HDAC 11 compared with Entinostat” value (HDAC 11; versus Entinostat) of the same compound?
**A.** more active than Entinostat

**Q.** And the t1/2 [1]?
**A.** about 17 hours
